Numbers after ± are expanded uncertainties.
Key:
[1] = Molar enthalpy of transition or fusion; settings: Crystal; DSC
[2] = Crystal; DSC

With `c1ccc2[nH]nnc2c1` [benzotriazole] the “Molar enthalpy of transition or fusion” value [1] was 15.2 ± 0.7 kJ/mol and the Triple point temperature [2] was 369.26 ± 1.2 K.
